{
  "source": "paper PMC8909834",
  "about": "“An Orally Bioavailable and Highly Efficacious Inhibitor of CDK9/FLT3 for the Treatment of Acute Myeloid Leukemia” (Cancers, 2022)",
  "assay_in_all_cases": "Kinase Hotspot radiolabel assay",
  "format_in_all_cases": "biochemical",
  "details_in_all_cases": "read-out: % Residual Activity",
  "key": {"PKAcg": {"target": "T1, PKAcg (Homo sapiens, UniProt P22612)", "T1 construct": "purchased Reaction Biology Corporation (Kinase HotSpot)", "how_it_was_run": "(§1)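 Step one: screen at 1 µM across 369 kinases (Hotspot, radiolabel detection). Step two: Ki determination for kinases with >90% inhibition.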"}, "WNK3": {"target": "T2, WNK3 (Homo sapiens, UniProt Q9BYP7)", "T2 construct": "purchased Reaction Biology Corporation (Kinase HotSpot)", "how_it_was_run": "as §1"}, "FLT1/VEGFR1": {"target": "T3, FLT1/VEGFR1 (Homo sapiens, UniProt P17948)", "T3 construct": "purchased Reaction Biology Corporation (Kinase HotSpot)", "how_it_was_run": "as §1"}, "ERBB4/HER4": {"target": "T4, ERBB4/HER4 (Homo sapiens, UniProt Q15303)", "T4 construct": "purchased Reaction Biology Corporation (Kinase HotSpot)", "how_it_was_run": "as §1"}, "ARAF": {"target": "T5, ARAF (Homo sapiens, UniProt P10398)", "T5 construct": "purchased Reaction Biology Corporation (Kinase HotSpot)", "T5 sequence (P10398 whole entry)": "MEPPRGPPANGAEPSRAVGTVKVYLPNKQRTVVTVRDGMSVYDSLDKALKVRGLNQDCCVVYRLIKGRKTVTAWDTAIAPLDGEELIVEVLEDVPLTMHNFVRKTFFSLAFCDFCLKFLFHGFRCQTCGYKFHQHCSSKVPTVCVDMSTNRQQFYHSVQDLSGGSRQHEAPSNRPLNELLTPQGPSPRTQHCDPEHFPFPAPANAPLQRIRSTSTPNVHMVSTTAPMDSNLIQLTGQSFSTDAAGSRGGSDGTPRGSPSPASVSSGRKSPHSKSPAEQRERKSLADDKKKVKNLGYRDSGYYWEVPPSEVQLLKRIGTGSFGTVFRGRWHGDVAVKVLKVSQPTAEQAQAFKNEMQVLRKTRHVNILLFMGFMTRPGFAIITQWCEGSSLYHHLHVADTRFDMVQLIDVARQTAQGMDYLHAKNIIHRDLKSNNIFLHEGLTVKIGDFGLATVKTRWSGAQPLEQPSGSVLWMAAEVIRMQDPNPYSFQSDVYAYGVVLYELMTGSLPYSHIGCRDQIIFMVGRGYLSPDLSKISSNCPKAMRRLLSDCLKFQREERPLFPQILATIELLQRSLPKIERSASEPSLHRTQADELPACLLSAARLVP", "how_it_was_run": "as §1"}, "AXL": {"target": "T6, AXL (Homo sapiens, UniProt P30530)", "T6 construct": "purchased Reaction Biology Corporation (Kinase HotSpot)", "how_it_was_run": "as §1"}, "PKCg": {"target": "T7, PKCg (Homo sapiens, UniProt P05129)", "T7 construct": "purchased Reaction Biology Corporation (Kinase HotSpot)", "how_it_was_run": "as §1"}, "CDK17/cyclin Y (PCTK2)": {"target": "T8, CDK17/cyclin Y (PCTK2) (Homo sapiens, UniProt Q00537)", "T8 construct": "purchased Reaction Biology Corporation (Kinase HotSpot)", "how_it_was_run": "as §1"}, "MKK7": {"target": "T9, MKK7 (Homo sapiens, UniProt O14733)", "T9 construct": "purchased Reaction Biology Corporation (Kinase HotSpot)", "how_it_was_run": "as §1"}, "MYO3b": {"target": "T10, MYO3b (Homo sapiens, UniProt Q8WXR4)", "T10 construct": "purchased Reaction Biology Corporation (Kinase HotSpot)", "how_it_was_run": "as §1"}, "CK1g3": {"target": "T11, CK1g3 (Homo sapiens, UniProt Q9Y6M4)", "T11 construct": "purchased Reaction Biology Corporation (Kinase HotSpot)", "how_it_was_run": "as §1"}, "DCAMKL2": {"target": "T12, DCAMKL2 (Homo sapiens, UniProt Q8N568)", "T12 construct": "purchased Reaction Biology Corporation (Kinase HotSpot)", "how_it_was_run": "as §1"}, "MELK": {"target": "T13, MELK (Homo sapiens, UniProt Q14680)", "T13 construct": "purchased Reaction Biology Corporation (Kinase HotSpot)", "how_it_was_run": "as §1"}, "STK32C/YANK3": {"target": "T14, STK32C/YANK3 (Homo sapiens, UniProt Q86UX6)", "T14 construct": "purchased Reaction Biology Corporation (Kinase HotSpot)", "how_it_was_run": "as §1"}, "DDR2": {"target": "T15, DDR2 (Homo sapiens, UniProt Q16832)", "T15 construct": "purchased Reaction Biology Corporation (Kinase HotSpot)", "how_it_was_run": "as §1"}, "SYK": {"target": "T16, SYK (Homo sapiens, UniProt P43405)", "T16 construct": "purchased Reaction Biology Corporation (Kinase HotSpot)", "how_it_was_run": "as §1"}, "Haspin": {"target": "T17, Haspin (Homo sapiens, UniProt Q8TF76)", "T17 construct": "purchased Reaction Biology Corporation (Kinase HotSpot)", "how_it_was_run": "as §1"}, "NEK5": {"target": "T18, NEK5 (Homo sapiens, UniProt Q6P3R8)", "T18 construct": "purchased Reaction Biology Corporation (Kinase HotSpot)", "how_it_was_run": "as §1"}, "CDK5/p35": {"target": "T19, CDK5/p35 (Homo sapiens, UniProt Q00535)", "T19 construct": "purchased Reaction Biology Corporation (Kinase HotSpot)", "how_it_was_run": "as §1"}, "MEKK6": {"target": "T20, MEKK6 (Homo sapiens, UniProt O95382)", "T20 construct": "purchased Reaction Biology Corporation (Kinase HotSpot)", "T20 sequence (O95382 whole entry)": "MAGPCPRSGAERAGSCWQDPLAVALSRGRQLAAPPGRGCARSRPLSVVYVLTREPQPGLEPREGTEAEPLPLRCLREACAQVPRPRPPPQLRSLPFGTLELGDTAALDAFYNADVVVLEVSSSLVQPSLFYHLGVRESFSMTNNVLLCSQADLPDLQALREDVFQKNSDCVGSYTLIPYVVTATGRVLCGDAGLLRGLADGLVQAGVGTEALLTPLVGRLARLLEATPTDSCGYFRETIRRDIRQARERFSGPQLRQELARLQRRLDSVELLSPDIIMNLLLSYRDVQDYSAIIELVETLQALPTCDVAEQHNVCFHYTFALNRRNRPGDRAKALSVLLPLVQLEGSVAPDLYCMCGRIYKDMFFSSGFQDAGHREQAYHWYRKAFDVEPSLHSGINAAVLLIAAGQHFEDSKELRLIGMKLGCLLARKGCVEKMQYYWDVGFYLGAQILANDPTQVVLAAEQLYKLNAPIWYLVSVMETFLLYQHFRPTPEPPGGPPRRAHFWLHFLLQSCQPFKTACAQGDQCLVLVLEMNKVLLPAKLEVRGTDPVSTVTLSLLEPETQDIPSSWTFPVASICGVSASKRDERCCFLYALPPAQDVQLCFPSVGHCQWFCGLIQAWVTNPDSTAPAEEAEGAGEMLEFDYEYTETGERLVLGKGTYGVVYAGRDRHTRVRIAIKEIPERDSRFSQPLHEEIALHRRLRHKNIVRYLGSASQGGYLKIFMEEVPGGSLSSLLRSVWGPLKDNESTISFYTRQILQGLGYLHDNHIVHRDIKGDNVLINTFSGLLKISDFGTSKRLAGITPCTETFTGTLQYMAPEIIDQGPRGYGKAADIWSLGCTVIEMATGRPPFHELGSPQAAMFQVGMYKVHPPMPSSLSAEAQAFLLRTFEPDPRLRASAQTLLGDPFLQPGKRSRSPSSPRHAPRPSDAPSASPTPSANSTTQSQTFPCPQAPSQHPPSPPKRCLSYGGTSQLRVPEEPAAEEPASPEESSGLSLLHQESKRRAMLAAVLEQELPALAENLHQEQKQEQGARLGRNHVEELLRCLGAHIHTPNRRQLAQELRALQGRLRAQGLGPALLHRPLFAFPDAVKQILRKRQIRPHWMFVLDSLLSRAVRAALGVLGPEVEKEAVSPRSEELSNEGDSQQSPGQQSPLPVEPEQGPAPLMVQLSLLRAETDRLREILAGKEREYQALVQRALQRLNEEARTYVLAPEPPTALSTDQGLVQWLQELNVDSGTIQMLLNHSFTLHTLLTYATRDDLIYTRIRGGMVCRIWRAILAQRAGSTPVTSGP", "how_it_was_run": "as §1"}, "P38a/MAPK14": {"target": "T21, P38a/MAPK14 (Homo sapiens, UniProt Q16539)", "T21 construct": "purchased Reaction Biology Corporation (Kinase HotSpot)", "how_it_was_run": "as §1"}, "SRMS": {"target": "T22, SRMS (Homo sapiens, UniProt Q9H3Y6)", "T22 construct": "purchased Reaction Biology Corporation (Kinase HotSpot)", "T22 sequence (Q9H3Y6 whole entry)": "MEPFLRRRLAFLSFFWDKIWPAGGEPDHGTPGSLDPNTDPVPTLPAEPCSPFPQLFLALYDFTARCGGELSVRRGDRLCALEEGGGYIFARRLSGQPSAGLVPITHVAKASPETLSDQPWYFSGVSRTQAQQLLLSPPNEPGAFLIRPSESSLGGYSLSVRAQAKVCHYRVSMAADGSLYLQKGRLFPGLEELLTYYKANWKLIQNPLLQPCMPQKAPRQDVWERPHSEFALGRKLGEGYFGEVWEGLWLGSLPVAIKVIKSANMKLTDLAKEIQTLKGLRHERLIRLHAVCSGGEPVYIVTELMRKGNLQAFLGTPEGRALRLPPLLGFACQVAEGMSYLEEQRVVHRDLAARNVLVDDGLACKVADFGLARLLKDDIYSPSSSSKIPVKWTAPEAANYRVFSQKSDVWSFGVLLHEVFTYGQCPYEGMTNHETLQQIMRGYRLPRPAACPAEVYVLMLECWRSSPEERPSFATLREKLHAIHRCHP", "how_it_was_run": "as §1"}, "MLK1/MAP3K9": {"target": "T23, MLK1/MAP3K9 (Homo sapiens, UniProt P80192)", "T23 construct": "purchased Reaction Biology Corporation (Kinase HotSpot)", "how_it_was_run": "as §1"}, "PKN3/PRK3": {"target": "T24, PKN3/PRK3 (Homo sapiens, UniProt Q6P5Z2)", "T24 construct": "purchased Reaction Biology Corporation (Kinase HotSpot)", "how_it_was_run": "as §1"}, "EPHB4": {"target": "T25, EPHB4 (Homo sapiens, UniProt P54760)", "T25 construct": "purchased Reaction Biology Corporation (Kinase HotSpot)", "how_it_was_run": "as §1"}, "NIM1": {"target": "T26, NIM1 (Homo sapiens, UniProt Q8IY84)", "T26 construct": "purchased Reaction Biology Corporation (Kinase HotSpot)", "T26 sequence (Q8IY84 whole entry)": "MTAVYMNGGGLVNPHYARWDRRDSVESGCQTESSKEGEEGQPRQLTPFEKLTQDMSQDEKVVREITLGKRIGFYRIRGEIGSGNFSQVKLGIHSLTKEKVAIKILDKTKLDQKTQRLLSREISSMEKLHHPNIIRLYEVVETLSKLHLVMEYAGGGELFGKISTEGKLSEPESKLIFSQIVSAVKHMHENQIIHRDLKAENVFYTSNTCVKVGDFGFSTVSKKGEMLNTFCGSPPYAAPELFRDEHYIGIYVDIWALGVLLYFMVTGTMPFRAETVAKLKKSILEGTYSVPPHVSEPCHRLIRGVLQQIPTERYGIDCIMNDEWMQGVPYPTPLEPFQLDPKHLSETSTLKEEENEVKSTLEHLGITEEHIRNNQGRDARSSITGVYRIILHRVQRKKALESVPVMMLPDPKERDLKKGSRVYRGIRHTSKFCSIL", "how_it_was_run": "as §1"}, "Aurora C": {"target": "T27, Aurora C (Homo sapiens, UniProt Q9UQB9)", "T27 construct": "purchased Reaction Biology Corporation (Kinase HotSpot)", "T27 sequence (Q9UQB9 whole entry)": "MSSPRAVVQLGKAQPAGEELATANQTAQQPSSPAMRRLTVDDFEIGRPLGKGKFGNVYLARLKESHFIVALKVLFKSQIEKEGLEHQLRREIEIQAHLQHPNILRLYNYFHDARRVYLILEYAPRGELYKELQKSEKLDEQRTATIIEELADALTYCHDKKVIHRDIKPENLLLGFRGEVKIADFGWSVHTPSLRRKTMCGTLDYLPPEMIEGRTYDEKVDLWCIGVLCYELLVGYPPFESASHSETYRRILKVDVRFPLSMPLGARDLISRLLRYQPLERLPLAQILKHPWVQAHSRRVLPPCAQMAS", "how_it_was_run": "as §1"}, "TYK2": {"target": "T28, TYK2 (Homo sapiens, UniProt P29597)", "T28 construct": "purchased Reaction Biology Corporation (Kinase HotSpot)", "how_it_was_run": "as §1"}, "PKCtheta": {"target": "T29, PKCtheta (Homo sapiens, UniProt Q04759)", "T29 construct": "purchased Reaction Biology Corporation (Kinase HotSpot)", "how_it_was_run": "as §1"}, "MLK4": {"target": "T30, MLK4 (Homo sapiens, UniProt Q5TCX8)", "T30 construct": "purchased Reaction Biology Corporation (Kinase HotSpot)", "T30 sequence (Q5TCX8 whole entry)": "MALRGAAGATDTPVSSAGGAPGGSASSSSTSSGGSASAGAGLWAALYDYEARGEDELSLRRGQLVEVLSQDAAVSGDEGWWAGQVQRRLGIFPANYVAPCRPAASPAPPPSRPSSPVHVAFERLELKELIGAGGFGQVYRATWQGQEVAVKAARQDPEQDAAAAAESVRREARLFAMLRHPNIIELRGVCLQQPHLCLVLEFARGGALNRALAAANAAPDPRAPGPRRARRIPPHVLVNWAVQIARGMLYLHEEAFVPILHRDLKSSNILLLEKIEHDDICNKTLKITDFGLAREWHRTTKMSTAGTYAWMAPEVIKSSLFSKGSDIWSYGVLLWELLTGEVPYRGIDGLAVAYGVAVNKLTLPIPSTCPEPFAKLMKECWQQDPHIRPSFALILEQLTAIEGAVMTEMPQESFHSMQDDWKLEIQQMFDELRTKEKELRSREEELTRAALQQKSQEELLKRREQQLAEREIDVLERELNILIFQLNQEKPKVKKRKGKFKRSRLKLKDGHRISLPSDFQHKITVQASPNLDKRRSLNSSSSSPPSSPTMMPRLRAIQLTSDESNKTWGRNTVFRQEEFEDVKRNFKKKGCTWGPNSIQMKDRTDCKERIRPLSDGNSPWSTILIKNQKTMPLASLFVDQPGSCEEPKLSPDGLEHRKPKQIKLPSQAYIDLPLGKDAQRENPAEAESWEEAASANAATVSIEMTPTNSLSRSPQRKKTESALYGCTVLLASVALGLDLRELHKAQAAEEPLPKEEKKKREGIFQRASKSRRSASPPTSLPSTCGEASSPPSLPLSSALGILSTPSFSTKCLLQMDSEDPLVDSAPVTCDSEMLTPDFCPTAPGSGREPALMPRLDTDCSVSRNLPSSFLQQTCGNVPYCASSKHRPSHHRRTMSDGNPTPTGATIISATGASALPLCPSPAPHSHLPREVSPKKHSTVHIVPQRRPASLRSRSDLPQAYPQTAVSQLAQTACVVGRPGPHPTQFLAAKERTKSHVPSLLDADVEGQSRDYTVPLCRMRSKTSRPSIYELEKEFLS", "how_it_was_run": "as §1"}},
  "data": [
    {"smiles": "Cc1cnc(N[C@H]2CC[C@H](N)CC2)nc1-c1cnc2ccc(-c3ccccc3)cn12", "note": "[CDDD11-8]", "values": [
      {"measurement": "remaining activity at 1 µM", "setting": "PKAcg", "value": 86.7, "unit": "%"},
      {"measurement": "remaining activity at 1 µM", "setting": "WNK3", "value": 84, "unit": "%"},
      {"measurement": "remaining activity at 1 µM", "setting": "FLT1/VEGFR1", "value": 53.4, "unit": "%"},
      {"measurement": "remaining activity at 1 µM", "setting": "ERBB4/HER4", "value": 96.9, "unit": "%"},
      {"measurement": "remaining activity at 1 µM", "setting": "ARAF", "value": 91.5, "unit": "%"},
      {"measurement": "remaining activity at 1 µM", "setting": "AXL", "value": 44.4, "unit": "%"},
      {"measurement": "remaining activity at 1 µM", "setting": "PKCg", "value": 87.9, "unit": "%"},
      {"measurement": "remaining activity at 1 µM", "setting": "CDK17/cyclin Y (PCTK2)", "value": 34.1, "unit": "%"},
      {"measurement": "remaining activity at 1 µM", "setting": "MKK7", "value": 95.4, "unit": "%"},
      {"measurement": "remaining activity at 1 µM", "setting": "MYO3b", "value": 58.4, "unit": "%"},
      {"measurement": "remaining activity at 1 µM", "setting": "CK1g3", "value": 63.2, "unit": "%"},
      {"measurement": "remaining activity at 1 µM", "setting": "DCAMKL2", "value": 108, "unit": "%"},
      {"measurement": "remaining activity at 1 µM", "setting": "MELK", "value": 66.9, "unit": "%"},
      {"measurement": "remaining activity at 1 µM", "setting": "STK32C/YANK3", "value": 91.1, "unit": "%"},
      {"measurement": "remaining activity at 1 µM", "setting": "DDR2", "value": 73.5, "unit": "%"},
      {"measurement": "remaining activity at 1 µM", "setting": "SYK", "value": 13.4, "unit": "%"},
      {"measurement": "remaining activity at 1 µM", "setting": "Haspin", "value": 65.1, "unit": "%"},
      {"measurement": "remaining activity at 1 µM", "setting": "NEK5", "value": 28.7, "unit": "%"},
      {"measurement": "remaining activity at 1 µM", "setting": "CDK5/p35", "value": 84.5, "unit": "%"},
      {"measurement": "remaining activity at 1 µM", "setting": "MEKK6", "value": 104, "unit": "%"},
      {"measurement": "remaining activity at 1 µM", "setting": "P38a/MAPK14", "value": 106, "unit": "%"},
      {"measurement": "remaining activity at 1 µM", "setting": "SRMS", "value": 101, "unit": "%"},
      {"measurement": "remaining activity at 1 µM", "setting": "MLK1/MAP3K9", "value": 43, "unit": "%"},
      {"measurement": "remaining activity at 1 µM", "setting": "PKN3/PRK3", "value": 81, "unit": "%"},
      {"measurement": "remaining activity at 1 µM", "setting": "EPHB4", "value": 81, "unit": "%"},
      {"measurement": "remaining activity at 1 µM", "setting": "NIM1", "value": 89.9, "unit": "%"},
      {"measurement": "remaining activity at 1 µM", "setting": "Aurora C", "value": 82.1, "unit": "%"},
      {"measurement": "remaining activity at 1 µM", "setting": "TYK2", "value": 93.2, "unit": "%"},
      {"measurement": "remaining activity at 1 µM", "setting": "PKCtheta", "value": 46.2, "unit": "%"},
      {"measurement": "remaining activity at 1 µM", "setting": "MLK4", "value": 112, "unit": "%"}
    ]}
  ]
}
